Measured values as given in US20250241863A1, “COMPOSITIONS AND METHODS FOR TARGETED DELIVERY OF THERAPEUTIC AND/OR DIAGNOSTIC SPECIES” (THE PENN STATE RESEARCH FOUNDATION, priority 2017, published 2025).
One block for each compound: values may come before it. {FAM} = fluorescein (FAM) label; {NH2} = amine modification

Key:
[1] = activation temperature of the retro Diels-Alder reaction of the linker groups (FIG. 7); type: physicochemical; details: linker group in FIG. 7
Source text: (§1) For different Diels-Alder cyclo-addition products, the retro (or reverse) Diels-Alder reaction will occur or be initiated at different temperatures (i.e., different activation temperatures). Thus, by varying the Diels-Alder cyclo-addition product in the linker group, breaking up or cleaving of the Diels-Alder cyclo-addition product (and concomitant decoupling of the therapeutic species and the nanoparticle) can be “tuned” to occur at different temperatures.

[2] = temperature dependency of retro Diels-Alder reaction (release of fluorescent si-RNA) for linker connected to a nanoparticle (FIGS. 10, 11); type: physicochemical; details: for cleavage of the linker: linker connected to a nanoparticle
Source text: as §1
Specifically, to conjugate a FAM-tagged RFP antisense siRNA mimic, an EDC coupling protocol was used with […] of an aqueous EDC/NHS (100 mM) stock solution added to each of the three resuspended nanoparticle aliquots prepared in Example 3, followed by […] of the amine-terminated siRNA (4 mM), After 24 h, the particles were again centrifuged, washed, and resuspended in DI water. A control sample in which cysteamine modified SNPs were linked to the 6-maleimidohexanoic acid via EDC coupling was also prepared, similarly to the pyrrole-based reaction described above, but without addition of the diene, to test the stability of both the amide and thiol linkages. Conjugation of the linkers and siRNA was tested by chemically reducing the Ag-linker bond using TCEP reagent (tris(2-carboxyethyl)phosphine hydrochloride) and measuring FAM intensity of the supernatant.
The products of these reactions (pyrrole, furan, and thiophene-based) were analyzed. For example, the temperature dependency of the retro Diels Alder reaction (and release of the fluorescent si-RNA) was evaluated. […] The fluorescence intensity of the treated sample is assumed to indicate maximum release (due to cleavage/retro (or reverse) Diels Alder reaction).

PAM2 skin cancer cells = experiment: anti-cancer effects of released miRN-148b in PAM2 cells (FIG. 23); type: cell-based; details: PAM2 cells transfected, 7 days after transfection (positive control)
Experimental: (§2) The anti-cancer effects towards PAM2 skin cancer cells of miRN-148b released from compositions described herein were explored using a furan-based linker conjugated with a FAM-tagged miRN-148b and an SNP. The furan-based linker composition was prepared according to Examples 1-5. SNPs surface-modified with miRNA mimics via Diels-Alder linkage, were sterilized in 70/30% ethanol and water solution prior to washing and resuspension in RNAse-free water. Subsequently, appropriate nanoparticle solution volumes were added, based on required dosages, to the adherent monolayer PAM2 cells at optimal seeding densities, immersed in appropriate cell culture media. Transfection was allowed to occur at 37° C. for 24 h.
FIG. 23A is a negative control showing fluorescence of the PAM2 cells in the presence of silver nanoparticles prepared in accordance with Example 1 after 7 days. FIG. 23B is a positive control showing PAM2 cells transfected with FAM-tagged miRN-148b 7 days after transfection.

[3] = system: Ras-induced keratinocyte lung cancer cells; experiment: anti-cancer effects of released miRN-148b in Ras-induced keratinocyte cells (FIG. 24); type: cell-based; details: keratinocyte cells transfected with 100 nM, after 7 days
Experimental: as §2, with “Ras-induced keratinocyte lung” for “PAM2 skin”
FIG. 24A is a negative control of keratinocyte cells in the absence of the composition and FAM-tagged miRN-148b after 7 days. FIG. 24B is a positive control of keratinocyte cells after 7 days, which have been transfected with FAM-tagged miRN-148b (100 nM).

activation temperature of the retro Diels-Alder reaction [1]: 60 °C
speed of cleavage of the linker compared with the thiophene-based linker ([2]; FIGS. 10 and 11): faster at lower temperatures
cleavage of the linker ([2]; after 1 hour of heating, at 60° C.): 25%
Compound: O=C(O)CCCCCN1C(=O)C2C3C=CC(CS)(O3)C2C1=O (centres unmarked) [furan-based linker group]

Compound: O=C(O)CCCCCN1C(=O)C2C3C=CC(C(=O)O)(N3)C2C1=O (centres unmarked) [pyrrole-based linker group]
activation temperature of the retro Diels-Alder reaction [1]: 40 °C

Compound: FAM-tagged miRN-148b: 3′amine/5′-FAM modified single stranded siRNA, sequence UUGGAGCCGUACUGGAACUUG (5' {FAM}, 3' {NH2}, sugars by position and backbone not given here)
cell proliferation and growth (PAM2 skin cancer cells): reduced cell proliferation and growth
cell growth [3]: normal cell behavior

activation temperature of the retro Diels-Alder reaction [1]: around 80 °C
cleavage of the linker ([2]; after 2 hours of heating at 37° C., 60° C., and 80° C.): not observed until 80 °C
Compound: O=C(O)CCCCCN1C(=O)C2C3C=CC(CS)(S3)C2C1=O (centres unmarked) [thiophene-based linker group]
